The results in this text go back to patent US20230381321A1, “CAMPTOTHECIN CONJUGATES” (priority 2022, published 2023).

Common to all, as to type: cell-based
Assay [1] deals with anaplastic large cell lymphoma cells (DEL). As to the kind of experiment: In vitro potency (CellTiter-Glo, 96 h) on DEL. The note with it: 96 h, CPT free drugs; CellTiter-Glo after 96 h exposure; read-out: DEL IC50. Summed up:
(§1)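 Luminescent viability signal reports growth inhibition after continuous exposure of cells to serially diluted […]. Cells, grown in RPMI 1640 plus 20% FBS, had been plated in log phase one day before dosing.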
Background: Cellular ATP, detected with luciferase, serves as a proxy for viable cell number.

Assay [2] deals with anaplastic large cell lymphoma cells (DELBVR). Kind of assay: In vitro potency (CellTiter-Glo, 96 h) on DELBVR. The note with it: 96 h, CPT free drugs; CellTiter-Glo after 96 h exposure; read-out: DELBVR IC50. The method in brief: as §1
For assay [3], the system named is pancreatic cancer cells (BxPC3). Kind of assay: In vitro potency (CellTiter-Glo, 96 h) on BxPC3. The note with it: Homo sapiens, BXPC-3, 96 h, CPT free drugs; CellTiter-Glo after 96 h exposure; read-out: BxPC3 IC50. The method in brief:
as §1

For assay [4], the system named is non-small-cell lung cancer cells (Calu1). As to the kind of experiment: In vitro potency (CellTiter-Glo, 96 h) on Calu1. The note with it: Homo sapiens, Calu-1, 96 h, CPT free drugs; CellTiter-Glo after 96 h exposure; read-out: Calu1 IC50. The method in brief: as §1
Assay [5] has as its system acute myeloid leukemia cells (MOLM-13). Kind of assay: In vitro potency (CellTiter-Glo, 96 h) on MOLM-13. The note with it: Homo sapiens, MOLM-13, 96 h, CPT free drugs; CellTiter-Glo after 96 h exposure; read-out: MOLM-13 IC50. Summed up:
as §1

The subject of assay [6] is renal carcinoma cells (786-O). As to the kind of experiment: In vitro potency (CellTiter-Glo, 96 h) on 786-O. The note with it: Homo sapiens, 786-0, 96 h, CPT free drugs; CellTiter-Glo after 96 h exposure; read-out: 786-O IC50. Summed up: as §1
Assay [7] deals with anaplastic large cell lymphoma cells (Karpas299). Kind of assay: In vitro potency (CellTiter-Glo, 96 h) on Karpas299. The note with it: Homo sapiens, KARPAS-299, 96 h, CPT free drugs; CellTiter-Glo after 96 h exposure; read-out: Karpas299 IC50. The method in brief:
as §1

The subject of assay [8] is B-lymphocyte cancer cells (SU-DHL4). As to the kind of experiment: In vitro potency (CellTiter-Glo, 96 h) on SU-DHL4. The note with it: Homo sapiens, SU-DHL-4, 96 h, CPT free drugs; CellTiter-Glo after 96 h exposure; read-out: SU-DHL-4 IC50. Summed up:
as §1

Assay [9] relates to breast cancer cells (MDA-MB-231). Kind of assay: In vitro potency (CellTiter-Glo, 96 h) on MDA-MB-231. The note with it: Homo sapiens, MDA-MB-231, 96 h, CPT free drugs; CellTiter-Glo after 96 h exposure; read-out: MDAMB 231 IC50. Summed up: as §1
In assay [10] the test system is Hodgkin's lymphoma cells (L540cy). As to the kind of experiment: In vitro potency (CellTiter-Glo, 96 h) on L540cy. The note with it: L540cy, 96 h, CPT free drugs; CellTiter-Glo after 96 h exposure; read-out: L540cy IC50. The method in brief: as §1
Assay [11] can be described thus: In vitro potency (CellTiter-Glo, 96 h) on Ls174T. The note with it: Homo sapiens, LS174T; CPT free drugs; CellTiter-Glo after 96 h exposure; read-out: Ls174T IC50. The method in brief: as §1
Another assay concerns melanoma cells (A2058). As to the kind of experiment: In vitro potency (CellTiter-Glo, 96 h) on A2058. The note with it: Homo sapiens, A2058, 96 h, CPT free drugs; CellTiter-Glo after 96 h exposure; read-out: A2058 IC50. Summed up:
as §1

One may read the IC50 as the concentration needed to halve the response being measured. Take `CC[C@@]1(O)C(=O)OCc2c1cc1n(c2=O)Cc2c-1nc1cc(F)c(C)c(C3=CCCC3)c1c2CN` [Compound 6c]: the IC50 in assay [1] came out at 1 nM; in assay [2] it was 2 nM; in [3], 5 nM; in assay [4], 15 nM; in assay [5] it was 4 nM; in [6] it was 4 nM. For the same compound, the concentration for half-maximal inhibition (IC50) was 3 nM in assay [7]; 2 nM in [8]; 7 nM in assay [9]; 3 nM in assay [10]; 18 nM in assay [11]; 5 nM in the assay with melanoma cells (A2058).
